The results in this text go back to patent US10420734B2, “Method of treating cancer using selective estrogen receptor modulators” (Duke University, priority 2014, dated 2019).

One assay addresses T1, ESR1 (Mus musculus, UniProt P19785).
T1 construct: tissue Charles River (mice); host or cells: uterus of ovariectomized female C57Bl/6 mice
T1 sequence (P19785 1-599): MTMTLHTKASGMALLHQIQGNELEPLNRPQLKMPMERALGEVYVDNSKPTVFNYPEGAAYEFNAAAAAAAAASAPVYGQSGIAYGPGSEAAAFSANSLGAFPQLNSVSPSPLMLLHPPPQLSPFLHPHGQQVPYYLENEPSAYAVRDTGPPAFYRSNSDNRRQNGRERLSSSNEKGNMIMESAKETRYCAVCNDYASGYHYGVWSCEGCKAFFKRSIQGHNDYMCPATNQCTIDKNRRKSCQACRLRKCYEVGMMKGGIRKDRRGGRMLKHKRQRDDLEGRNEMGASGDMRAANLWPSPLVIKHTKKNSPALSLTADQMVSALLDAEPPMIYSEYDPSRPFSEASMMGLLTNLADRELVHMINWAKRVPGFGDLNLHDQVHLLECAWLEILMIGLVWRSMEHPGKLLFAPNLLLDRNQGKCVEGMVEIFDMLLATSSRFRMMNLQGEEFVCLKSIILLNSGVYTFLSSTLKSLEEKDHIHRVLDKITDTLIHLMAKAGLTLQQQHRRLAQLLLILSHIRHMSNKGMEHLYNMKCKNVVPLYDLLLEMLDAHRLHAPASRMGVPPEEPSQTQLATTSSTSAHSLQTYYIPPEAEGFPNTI
The assay can be described thus: Uterine wet weight analysis in ovariectomized C57Bl/6 mice. Format: in vivo. Particulars: for uterine wet weight, single agent: without E2. As to the method:
Uterine wet weight analysis: Ovariectomized (10 days prior) female C57Bl/6 mice (Charles River) were treated daily (n=5) for 3 days with vehicle or estradiol benzoate (10 μg/kg sc) as well as vehicle, raloxifene (10 mg/kg sc), or RAD1901 (0.1-100 mg/kg sc). Ligands were dissolved in corn oil (Spectrum chemicals). On day 4, mice were euthanized and tissues were retained for analysis. Uterine wet weight was calculated as a ratio of uterus weight upon removal to body weight post-mortem.
As a first step, the impact of RAD1901 on uterine wet weight in mice was evaluated. For this study, increasing doses of RAD1901 was administered daily to ovariectomized C57Bl/6 mice receiving vehicle alone or E2 (10 μg/kg; a physiological replacement dose). A group of mice receiving 10 mg/kg of raloxifene was included for comparative purposes and for reference. Ovariectomized C57Bl/6 mice (n=5) were treated daily for 3 days with (FIG. 8A) vehicle or (FIG. 8B) estradiol (10 μg/kg) together with vehicle, Ralox (10 mg/kg) or RAD1901 (RAD), ([…]). At euthanasia, body weight as well as uterine wet weight was measured prior to cryopreservation of the uterus. […] For FIG. 8C, ESR1 and β-actin expression in extracts made from pulverized uterine tissues were analyzed by immunoblot as in FIG. 5 (left). ESR1 expression relative to β-actin was quantitated as in FIG. 6 (right). Significant downregulation (*p<0.05) of ESR1 was determined by ANOVA followed by Bonferroni comparison.

For the next assay, the system named is MCF7 cells. The assay can be described thus: E2-stimulated MCF7 cell proliferation assay (8 day, DNA fluorescence). Format: cell-based. Particulars: 10^-9 M E2, ligand 10^-11-10^-6 M, 8 day assay. Here is the method: Assays evaluating the effects of SERDs and SERMs on cell proliferation were performed as described (Wardell et al., (2013) Clin Cancer Res 19 (9):2420-2431).
The ability of RAD1901 (FIG. 5A) to modulate the […] estradiol (E2) dependent transcriptional activity of the human estrogen receptor alpha (ESR1) and human estrogen receptor beta (ESR2) was assessed in transiently transfected SKBR3 cells using a synthetic reporter gene. […] For FIG. 5B, SKBR3 cells were plated in phenol red free media supplemented with charcoal stripped FBS (CFS) 24 hours prior to transfection with an ERE-luciferase reporter together with ESR1 or ESR2 expression vectors. 24 hours after transfection, cells were treated with E2 (10 nM) together with RAD1901 (10^−10-10^−6 M) for 24 hours prior to harvest and analysis of luciferase activity normalized to co-transfected β-galactosidase control. […] DNA content as assessed by fluorescence was measured as a surrogate for cell proliferation. The relative increase in DNA fluorescence was calculated by normalizing to baseline values detected in a duplicate plate of cells that was harvested on day 1 prior to the initial treatment. […] For FIG. 5F, expression of ESR1 target genes in tumors was analyzed essentially as in (C).

In the next assay the test system is LTED MCF7 cells. The assay can be described thus: LTED MCF7 cell proliferation assay. Format: cell-based. Particulars: model of aromatase resistance, 10^-11-10^-6 M, 8 day assay.

For `CCNCCc1ccc(CN(CC)c2cc(OC)ccc2[C@@H]2CCc3cc(O)ccc3C2)cc1` [RAD1901, (R)-6-{2-{ethyl[4-(2-ethylaminoethyl)benzyl]amino}-4-methoxyphenyl}-5,6,7,8-tetrahydronaphthalen-2-ol], the “ESR1 expression in uterine tissue (immunoblot)” value on ESR1 (0.3 mg/kg) is listed as “no decrease in ESR1 expression”; at ESR1 (RAD1901 0.3-100 mg/kg), “dose dependent downregulation”. Moreover, the “uterine wet weight, single agent” value at ESR1 (0.3 mg/kg sc daily for 3 days) is given as “statistically significant increase”; at ESR1 (doses of 1 mg/kg and above, sc daily for 3 days), “indistinguishable from vehicle treated animals”. The “E2-dependent increases in uterine wet weight” value at ESR1 (with estradiol 10 μg/kg, RAD1901 0.3-100 mg/kg) was “inhibit E2-dependent increases in uterine wet weight”. Further, in the assay on MCF7 cells, the “E2-dependent stimulation of cell proliferation” value is recorded as “inhibited”. The cell proliferation entry in the assay on LTED MCF7 cells was “inhibited cell proliferation”.
